This is an account of results in PMC5488175, “A New Methodology for Incorporating Chiral Linkers into Stapled Peptides” (Chembiochem, 2017).

Data set [1] is described as follows: Circular dichroism helicity. Type of data set: physicochemical. Particulars: CD, MRE222 vs theoretical maximum; PBS (50 mM)/acetonitrile 95:5, pH 7.4, 20 °C; average of three scans. As for the experimental part: Each purified peptide was dissolved in phosphate buffer (PBS; 50 mM)/acetonitrile (95:5, pH 7.4) and its circular dichroism spectrum was recorded.
Circular dichroism: CD spectra were obtained on a Chirascan CD spectrometer at 20 °C (1 mm path length, 260–190 nm, bandwidth 1.0 nm, response time 0.5 s, step resolution 1.0 nm) Each spectrum is the average of three scans. Peptides were dissolved in PBS (50 mM)/acetonitrile (95:5, pH 7.4) at 20 °C. The helicity was calculated as previously reported19b by comparing mean residue ellipticity at 222 nm (MRE222) to the theoretical maximum as calculated from the formula [Eq. (1), n=number of amino acid residues] described by Forood et al.21 (1) MRE222=-40000×(1-2.5/n)
Spectra were obtained at several concentrations ([…]).

Another data set concerns α-chymotrypsin. The experiment in a line: Serum stability assay: incubation with α‐chymotrypsin. Type of data set: in vitro ADME. To be noted: α-chymotrypsin (0.5 μg/mL) in PBS, α-chymotrypsin 0.5 μg mL−1 in PBS, peptide 0.3 mM from DMSO stock, RT, HPLC 220 nm vs caffeine internal standard, duplicate, read-out: peptide remaining intact after 6 h of incubation with α‐chymotrypsin. Here is the method: Serum stability assay: Each peptide was dissolved in PBS (300 μL) from a DMSO stock to a final concentration of 0.3 mM. This PBS contained α‐chymotrypsin (0.5 μg mL^−1) and caffeine as an internal standard. Peptides were incubated at RT, and at each time point, an aliquot (30 μL) of the mixture was removed, snap frozen, thawed and centrifuged, and the supernatant was analysed by HPLC. Peptide degradation was monitored by comparing the integration of the peptide peak against the internal standard at […]. Experiments were performed in duplicate.

Each structure is given as a SMILES string.

For `C=CCCC[C@](C)(NC(=O)[C@H](Cc1ccccc1)NC(=O)[C@@H](NC(=O)[C@H](CCC(=O)O)NC(C)=O)[C@@H](C)O)C(=O)N[C@@H](CC(=O)O)C(=O)N[C@@H](CC(C)C)C(=O)N[C@@H](Cc1c[nH]c2ccccc12)C(=O)N[C@@H](CCCNC(=N)N)C(=O)N[C@@H](CC(C)C)C(=O)N[C@@H](CC(C)C)C(=O)N[C@@H](CCN=[N+]=[N-])C(=O)N[C@@H](CCC(=O)O)C(=O)N[C@@H](CC(N)=O)C(N)=O` [SP0], the Helicity in data set [1] is recorded as 52%. Besides, in the data set with α-chymotrypsin, the share remaining at 6 h, 0.3 mM amounted to 17%.
Compound `CC(=O)N[C@@H](CCC(=O)O)C(=O)N[C@H](C(=O)N[C@@H](Cc1ccccc1)C(=O)N[C@@]1(C)CCCC=CCCC[C@H](OC(=O)[C@@H](N)CCCCN)c2cn(nn2)CC[C@@H](C(=O)N[C@@H](CCC(=O)O)C(=O)N[C@@H](CC(N)=O)C(N)=O)NC(=O)[C@H](CC(C)C)NC(=O)[C@H](CC(C)C)NC(=O)[C@H](CCCNC(=N)N)NC(=O)[C@H](Cc2c[nH]c3ccccc23)NC(=O)[C@H](CC(C)C)NC(=O)[C@H](CC(=O)O)NC1=O)[C@@H](C)O` [SP1 (A)] yielded a Helicity in data set [1] of 53%. Besides, the share remaining at 6 h, 0.3 mM in the data set on α-chymotrypsin came to 82%.
Compound `CC(=O)N[C@@H](CCC(=O)O)C(=O)N[C@H](C(=O)N[C@@H](Cc1ccccc1)C(=O)N[C@@]1(C)CCCC=CCCC[C@H](OC(=O)[C@@H](N)CCCCN)c2cn(nn2)CC[C@@H](C(=O)N[C@@H](CCC(=O)O)C(=O)N[C@@H](CC(N)=O)C(N)=O)NC(=O)[C@H](CC(C)C)NC(=O)[C@H](CC(C)C)NC(=O)[C@H](CCCNC(=N)N)NC(=O)[C@H](Cc2c[nH]c3ccccc23)NC(=O)[C@H](CC(C)C)NC(=O)[C@H](CC(=O)O)NC1=O)[C@@H](C)O` [SP1 (B)] came in with a Helicity in data set [1] of 31%.
`CC(=O)N[C@@H](CCC(=O)O)C(=O)N[C@H](C(=O)N[C@@H](Cc1ccccc1)C(=O)N[C@@]1(C)CCCC=CCCC[C@H](OC(=O)[C@H](CCCCN)NC(=O)[C@@H](N)CCCCN)c2cn(nn2)CC[C@@H](C(=O)N[C@@H](CCC(=O)O)C(=O)N[C@@H](CC(N)=O)C(N)=O)NC(=O)[C@H](CC(C)C)NC(=O)[C@H](CC(C)C)NC(=O)[C@H](CCCNC(=N)N)NC(=O)[C@H](Cc2c[nH]c3ccccc23)NC(=O)[C@H](CC(C)C)NC(=O)[C@H](CC(=O)O)NC1=O)[C@@H](C)O` [SP1‐K (A)] came in with a Helicity in data set [1] of 55%.
Take `CC(=O)N[C@@H](CCC(=O)O)C(=O)N[C@H](C(=O)N[C@@H](Cc1ccccc1)C(=O)N[C@@]1(C)CCCC=CCCC[C@H](OC(=O)[C@H](CCCCN)NC(=O)[C@@H](N)CCCCN)c2cn(nn2)CC[C@@H](C(=O)N[C@@H](CCC(=O)O)C(=O)N[C@@H](CC(N)=O)C(N)=O)NC(=O)[C@H](CC(C)C)NC(=O)[C@H](CC(C)C)NC(=O)[C@H](CCCNC(=N)N)NC(=O)[C@H](Cc2c[nH]c3ccccc23)NC(=O)[C@H](CC(C)C)NC(=O)[C@H](CC(=O)O)NC1=O)[C@@H](C)O` [SP1‐K (B)]: the Helicity in data set [1] is on record as 31%.
`CC(=O)N[C@@H](CCC(=O)O)C(=O)N[C@H](C(=O)N[C@@H](Cc1ccccc1)C(=O)N[C@@]1(C)CCCC=CCCC[C@@H](OC(=O)[C@@H](N)CCCCN)c2cn(nn2)CC[C@@H](C(=O)N[C@@H](CCC(=O)O)C(=O)N[C@@H](CC(N)=O)C(N)=O)NC(=O)[C@H](CC(C)C)NC(=O)[C@H](CC(C)C)NC(=O)[C@H](CCCNC(=N)N)NC(=O)[C@H](Cc2c[nH]c3ccccc23)NC(=O)[C@H](CC(C)C)NC(=O)[C@H](CC(=O)O)NC1=O)[C@@H](C)O` [SP2 (A)] registered a Helicity in data set [1] of 67%.
Consider `CC(=O)N[C@@H](CCC(=O)O)C(=O)N[C@H](C(=O)N[C@@H](Cc1ccccc1)C(=O)N[C@@]1(C)CCCC=CCCC[C@@H](OC(=O)[C@@H](N)CCCCN)c2cn(nn2)CC[C@@H](C(=O)N[C@@H](CCC(=O)O)C(=O)N[C@@H](CC(N)=O)C(N)=O)NC(=O)[C@H](CC(C)C)NC(=O)[C@H](CC(C)C)NC(=O)[C@H](CCCNC(=N)N)NC(=O)[C@H](Cc2c[nH]c3ccccc23)NC(=O)[C@H](CC(C)C)NC(=O)[C@H](CC(=O)O)NC1=O)[C@@H](C)O` [SP2 (B)], for which the Helicity in data set [1] stood at 35%.
Same read-out and setting: in the case of `CC(=O)N[C@@H](CCC(=O)O)C(=O)N[C@H](C(=O)N[C@@H](Cc1ccccc1)C(=O)N[C@@]1(C)CCCC=CCCC[C@@H](OC(=O)[C@H](CCCCN)NC(=O)[C@@H](N)CCCCN)c2cn(nn2)CC[C@@H](C(=O)N[C@@H](CCC(=O)O)C(=O)N[C@@H](CC(N)=O)C(N)=O)NC(=O)[C@H](CC(C)C)NC(=O)[C@H](CC(C)C)NC(=O)[C@H](CCCNC(=N)N)NC(=O)[C@H](Cc2c[nH]c3ccccc23)NC(=O)[C@H](CC(C)C)NC(=O)[C@H](CC(=O)O)NC1=O)[C@@H](C)O` [SP2‐K (A)] it was 65%; in that of `CC(=O)N[C@@H](CCC(=O)O)C(=O)N[C@H](C(=O)N[C@@H](Cc1ccccc1)C(=O)N[C@@]1(C)CCCC=CCCC[C@@H](OC(=O)[C@H](CCCCN)NC(=O)[C@@H](N)CCCCN)c2cn(nn2)CC[C@@H](C(=O)N[C@@H](CCC(=O)O)C(=O)N[C@@H](CC(N)=O)C(N)=O)NC(=O)[C@H](CC(C)C)NC(=O)[C@H](CC(C)C)NC(=O)[C@H](CCCNC(=N)N)NC(=O)[C@H](Cc2c[nH]c3ccccc23)NC(=O)[C@H](CC(C)C)NC(=O)[C@H](CC(=O)O)NC1=O)[C@@H](C)O` [SP2‐K (B)], 36%.

By amount remaining is commonly meant what is left of the initial amount, in per cent.
